Experiments:
[1] = target: T1, alkaline phosphatase-labeled DNA probe (Bos taurus, UniProt P19111); assay: Alkaline phosphatase-labeled DNA probe detection in membrane with and without BDMQ blocking step (Example XV); settings: for Detection limit (in picograms DNA) 5. min. exp.: five minute exposure 40 minutes after dioxetane addition; for Detection limit (in picograms DNA) 1 min. exp.: one minute exposure 77 minutes after dioxetane addition
T1 construct: purchased Tropix, Inc
Procedure: pBr 322 plasmid (4700 bp) was subjected to a nick translation process using a Trans-Light kit (Tropix, Inc., Bedford, Mass.) to generate a mixture of biotinylated single stranded polynucleotides of 200-2000 bps in length.
This mixture was dotted onto a dry BIODYNE A membrane as five parallel columns of dots of the following concentrations:
The membrane was subjected to ultraviolet irradiation (UVP Mineral Light; UVP, San Gabriel, Calif.) for 3 minutes to fix the DNA to the surface of the membrane, then air dried. Next, the membrane was blocked in 0.2% casein/0.1% Tween 20 detergent in PBS for 1 hour, following which 1/5000 diluted avidin-alkaline phosphatase conjugate (Tropix, Inc.) in 0.2% casein in PBS was added. The membrane was then incubated for 30 minutes, washed three times (for 5 minutes each time) in 0.2% casein/0.1% Tween 20 detergent in PBS and washed once for five minutes in aqueous 0.1M diethanolamine containing 1 mm magnesium chloride and 0.02% sodium azide, pH 10.0 (substrate buffer).
Next, the five columns of rows of dots 1-5 were individually cut from the membrane ("strips 1-5"), as were the five columns of rows of dots 6-10 ("strips 6-10"). Strips 1-5 were washed with substrate buffer for 30 minutes. Strips 6-10 were blocked in 0.1% BDMQ in substrate buffer for 30 minutes. Both sets of strips were then incubated for 5 minutes in substrate buffer, then individually incubated for five minutes in aqueous solutions (0.25 mM) of 1,2-dioxetanes as indicated below:
All strips were then placed in camera luminometers and exposed on Polaroid Type 612 instant black and white film.

alkaline phosphatase = alkaline phosphatase (Bos taurus, UniProt P19111); assay: Chemiluminescent signal and signal:background with enhancer polymers (Example XVII); type: biochemical
Procedure: Four sets of three tubes each, each tube in each set containing 450 μl of a 0.4 mM aqueous solution of one of the four 1,2-dioxetanes being compared in 0.1M diethanolamine containing 1 mM magnesium chloride, 0.02% sodium azide and 0.1% of the enhancer polymer, pH 10.0 (substrate buffer) were prepared and the background signal from each tube measured using a Berthold LB 952T luminometer (Berthold Instruments; Wildbad, Federal Republic of Germany).
Next, 50 μl of an aqueous solution, 2.83×10^-12 M of alkaline phosphatase in 0.1M diethanolamine containing 1 mM magnesium chloride, 0.02% sodium azide, pH 10.0, (final enzyme concentration 2.83×10^-13 M) was added to each tube and the chemiluminescent signals were measured in the luminometer at 5 and 20 minutes. The intensity of the chemiluminescent signals and the signal: background ratios obtained for each of the four 1,2-dioxetanes in the presence of the enhancer polymers are shown in Table III below.
The enhancer polymers used, and the symbols for such polymers used in Table III, were the following: […]

T1 sequence (P19111 20-506 limits assumed): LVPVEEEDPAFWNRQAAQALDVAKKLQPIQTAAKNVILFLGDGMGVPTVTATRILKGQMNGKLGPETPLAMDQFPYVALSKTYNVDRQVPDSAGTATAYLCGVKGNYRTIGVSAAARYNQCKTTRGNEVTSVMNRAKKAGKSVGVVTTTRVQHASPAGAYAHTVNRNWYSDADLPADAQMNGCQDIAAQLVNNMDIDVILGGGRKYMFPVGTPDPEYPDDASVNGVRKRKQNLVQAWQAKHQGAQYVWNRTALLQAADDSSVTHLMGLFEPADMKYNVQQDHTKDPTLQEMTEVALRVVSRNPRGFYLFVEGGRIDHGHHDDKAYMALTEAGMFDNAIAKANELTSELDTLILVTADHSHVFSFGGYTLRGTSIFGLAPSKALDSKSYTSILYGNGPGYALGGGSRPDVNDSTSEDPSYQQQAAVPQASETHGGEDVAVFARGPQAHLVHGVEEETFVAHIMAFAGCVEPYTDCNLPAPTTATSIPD
T1 sequence (P02701 25-152 partner): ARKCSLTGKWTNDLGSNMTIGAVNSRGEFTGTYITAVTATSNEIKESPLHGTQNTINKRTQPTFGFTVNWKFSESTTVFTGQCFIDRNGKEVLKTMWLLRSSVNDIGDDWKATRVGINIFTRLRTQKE
Sequence of alkaline phosphatase (P19111 20-506 limits assumed): as the sequence (P19111 20-506 limits assumed) above

## COC1(c2cccc(OP(=O)(O)O)c2)OOC12C1CC3CC2CC(Cl)(C3)C1 (stereo not shown) [Cl-AMPPD, disodium 3-(4-methoxyspiro-[1,2-dioxetane-3,2'-(5'-chloro)tricyclo[3.3.1.1^3,7]decan]-4-yl) phenyl phosphate]
[1]; BDMQ blocking step
  Detection limit (in picograms DNA) 5. min. exp.: 0.313 picograms DNA
  Detection limit (in picograms DNA) 1 min. exp.: 0.313 picograms DNA
[1]; no BDMQ blocking step
  Detection limit (in picograms DNA) 5. min. exp.: 1.250 picograms DNA
  Detection limit (in picograms DNA) 1 min. exp.: 1.250 picograms DNA
Alkaline phosphatase; polymer BAEDM, 5 min
  S/N: 102.2
  SIGNAL: 9086.9
Alkaline phosphatase; polymer BAEDM, 20 min
  S/N: 193.3
  SIGNAL: 17185.4
Alkaline phosphatase; polymer BAEDM, time 0
  S/N: 1.0
Alkaline phosphatase; polymer BAEDM, time 0 (background, before enzyme)
  SIGNAL: 88.9
Alkaline phosphatase; polymer DAA TMQ, 5 min
  S/N: 125.1
  SIGNAL: 10328.7
Alkaline phosphatase; polymer DAA TMQ, 20 min
  S/N: 159.9
  SIGNAL: 13204.2
Alkaline phosphatase; polymer DAA TMQ, time 0
  S/N: 1.0
Alkaline phosphatase; polymer DAA TMQ, time 0 (background, before enzyme)
  SIGNAL: 82.6
Alkaline phosphatase; polymer DMQ TEQ, 5 min
  S/N: 514.6
  SIGNAL: 39712.8
Alkaline phosphatase; polymer DMQ TEQ, 20 min
  S/N: 747.2
  SIGNAL: 57658.0
Alkaline phosphatase; polymer DMQ TEQ, time 0
  S/N: 1.0
Alkaline phosphatase; polymer DMQ TEQ, time 0 (background, before enzyme)
  SIGNAL: 77.2
Alkaline phosphatase; polymer EMERALD (sapphire and fluorescein), time 0 (background, before enzyme)
  SIGNAL: 3434.0
Alkaline phosphatase; polymer EMERALD, 5 min
  S/N: 583.2
  SIGNAL: 400510.8
Alkaline phosphatase; polymer EMERALD, 20 min
  S/N: 964.0
  SIGNAL: 662054.4
Alkaline phosphatase; polymer EMERALD, time 0
  S/N: 1.0
Alkaline phosphatase; polymer MPB, 5 min
  S/N: 257.8
  SIGNAL: 22170.5
Alkaline phosphatase; polymer MPB, 20 min
  S/N: 306.5
  SIGNAL: 29133.9
Alkaline phosphatase; polymer MPB, time 0
  S/N: 1.0
Alkaline phosphatase; polymer MPB, time 0 (background, before enzyme)
  SIGNAL: 86.0
Alkaline phosphatase; polymer NONE, 5 min
  S/N: 47.9
Alkaline phosphatase; polymer NONE, 5 min, enzyme 2.83×10^-13 M
  SIGNAL: 4083.6
Alkaline phosphatase; polymer NONE, 20 min
  S/N: 52.3
Alkaline phosphatase; polymer NONE, 20 min, enzyme 2.83×10^-13 M
  SIGNAL: 4460.9
Alkaline phosphatase; polymer NONE, time 0
  S/N: 1.0
Alkaline phosphatase; polymer NONE, time 0 (background, before enzyme)
  SIGNAL: 85.3
Alkaline phosphatase; polymer S/TMQ(1:2), 5 min
  S/N: 46.7
  SIGNAL: 3121.4
Alkaline phosphatase; polymer S/TMQ(1:2), 20 min
  S/N: 100.2
  SIGNAL: 6696.9
Alkaline phosphatase; polymer S/TMQ(1:2), time 0
  S/N: 1.0
Alkaline phosphatase; polymer S/TMQ(1:2), time 0 (background, before enzyme)
  SIGNAL: 66.8
Alkaline phosphatase; polymer S/TMQ(1:4), 5 min
  S/N: 93.9
  SIGNAL: 5631.2
Alkaline phosphatase; polymer S/TMQ(1:4), 20 min
  S/N: 165.0
  SIGNAL: 9957.4
Alkaline phosphatase; polymer S/TMQ(1:4), time 0
  S/N: 1.0
Alkaline phosphatase; polymer S/TMQ(1:4), time 0 (background, before enzyme)
  SIGNAL: 60.0
Alkaline phosphatase; polymer SAPPHIRE (BDMQ), time 0 (background, before enzyme)
  SIGNAL: 296.0
Alkaline phosphatase; polymer SAPPHIRE, 5 min
  S/N: 371.6
  SIGNAL: 51584.5
Alkaline phosphatase; polymer SAPPHIRE, 20 min
  S/N: 505.4
  SIGNAL: 70161.6
Alkaline phosphatase; polymer SAPPHIRE, time 0
  S/N: 1.0
Alkaline phosphatase; polymer TBQ-FLUOR (TBQ and fluorescein), time 0 (background, before enzyme)
  SIGNAL: 5882.7
Alkaline phosphatase; polymer TBQ-FLUOR, 5 min
  S/N: 839.4
  SIGNAL: 987572.0
Alkaline phosphatase; polymer TBQ-FLUOR, 20 min
  S/N: 1280.0
  SIGNAL: 1505971.2
Alkaline phosphatase; polymer TBQ-FLUOR, time 0
  S/N: 1.0
Alkaline phosphatase; polymer TBQ, 5 min
  S/N: 1249.6
  SIGNAL: 148394.6
Alkaline phosphatase; polymer TBQ, 20 min
  S/N: 1763.9
  SIGNAL: 209466.8
Alkaline phosphatase; polymer TBQ, time 0
  S/N: 1.0
Alkaline phosphatase; polymer TBQ, time 0 (background, before enzyme)
  SIGNAL: 118.8
Alkaline phosphatase; polymer TEQ, 5 min
  S/N: 397.0
  SIGNAL: 26551.0
Alkaline phosphatase; polymer TEQ, 20 min
  S/N: 513.5
  SIGNAL: 34467.2
Alkaline phosphatase; polymer TEQ, time 0
  S/N: 1.0
Alkaline phosphatase; polymer TEQ, time 0 (background, before enzyme)
  SIGNAL: 67.1
Alkaline phosphatase; polymer TMQ, 5 min
  S/N: 165.0
  SIGNAL: 9941.0
Alkaline phosphatase; polymer TMQ, 20 min
  S/N: 226.4
  SIGNAL: 13640.5
Alkaline phosphatase; polymer TMQ, time 0
  S/N: 1.0
Alkaline phosphatase; polymer TMQ, time 0 (background, before enzyme)
  SIGNAL: 50.3

Source: patent publication US5326882A, “Chemiluminescent 3-(substituted Adamant-2'-Ylidene) 1,2-dioxetanes” (Tropix, Inc., priority 1992, dated 1994)
